# Results: PMC9579148 (European Journal of Medicinal Chemistry, 2022)
# Residues, ends and D or L forms follow the SMILES beside them. *: point of attachment. Octanoyl = CCCCCCCC(=O)*; Boc = CC(C)(C)OC(=O)*
# Experiments:
# SARS-CoV-2 = settings: read-out: anti-SARS-CoV-2 activity EC50; cited from earlier work
# SARS-CoV-2 M^pro = SARS-CoV-2 M^pro (Severe acute respiratory syndrome coronavirus 2, UniProt P0DTD1); format: binding; settings: ITC
# [1] = tested on: SARS-CoV-2 RG2674 (South African); assay: Antiviral CPE reduction assay in Vero cells, RG2674; format: cell-based; settings: 100 CCID50, CPE, 5 days
# [2] = Stability test in aqueous solution; format: physicochemical; settings: PBS pH 7.0, 25 °C and 37 °C, 3, 6, 8 and 24 h, HPLC
# M^pro = settings: octapeptide progenitor, earlier work; cited from earlier work
molecule,measurement,setting,value
"Cc1cc(C(=O)N[C@@H](C)C(=O)N[C@H](C(=O)N[C@@H](CC(C)C)C(=O)N[C@H](/C=C/C(=O)OCc2ccccc2)C[C@@H]2CCNC2=O)C(C)C)no1 [N3, reference compound]",EC50,SARS-CoV-2,16.8 ± 1.7 µM
"CC(=O)NCC(=O)N[C@@H](Cc1ccccc1)C(=O)N[C@H](C=O)Cc1c[nH]cn1 [compound 4, Ac-Gly-Phe-His-CHO] (Ac-Gly-Phe-His-aldehyde)",Stoichiometry (N),SARS-CoV-2 M^pro,1.040 ± 0.012
same,Antiviral activity (EC50) RG2674,[1],ineffective
same,"Cytotoxicity, Cell morphology (MCC)",Vero cells,≥100 μM
same,Stability in aqueous solution,[2],stable
"CC(C)(C)OC(=O)NCC(=O)N[C@@H](Cc1ccccc1)C(=O)N[C@H](C=O)Cc1c[nH]cn1 [compound 57, Boc-Gly-Phe-His-CHO] (Boc-Gly-Phe-His-aldehyde)",Stoichiometry (N),SARS-CoV-2 M^pro,0.991 ± 0.015
same,"Cytotoxicity, Cell morphology (MCC)",Vero cells,≥100 μM
"CCCCCCCC(=O)NCC(=O)N[C@@H](Cc1ccccc1)C(=O)N[C@H](C=O)Cc1c[nH]cn1 [compound 58, Octanoyl-Gly-Phe-His-CHO] (Octanoyl-Gly-Phe-His-aldehyde)",Stoichiometry (N),SARS-CoV-2 M^pro,0.966 ± 0.013
same,"Cytotoxicity, Cell morphology (MCC)",Vero cells,≥100 μM
AT1001,enzymatic inhibition activity (partial inhibition),M^pro,about 30%
Ac-GGVLVQPG-NH2 [peptide 2],EC50,SARS-CoV-2,17.6 ± 2.4 µM
